The values below come from paper PMC3427410 (Nature chemical biology, 2012).

pIC50: −log10 of the molar value.

The target in the experiment is T1, FUT7 (Homo sapiens, UniProt Q11130).
T1 sequence (Q11130 1-342): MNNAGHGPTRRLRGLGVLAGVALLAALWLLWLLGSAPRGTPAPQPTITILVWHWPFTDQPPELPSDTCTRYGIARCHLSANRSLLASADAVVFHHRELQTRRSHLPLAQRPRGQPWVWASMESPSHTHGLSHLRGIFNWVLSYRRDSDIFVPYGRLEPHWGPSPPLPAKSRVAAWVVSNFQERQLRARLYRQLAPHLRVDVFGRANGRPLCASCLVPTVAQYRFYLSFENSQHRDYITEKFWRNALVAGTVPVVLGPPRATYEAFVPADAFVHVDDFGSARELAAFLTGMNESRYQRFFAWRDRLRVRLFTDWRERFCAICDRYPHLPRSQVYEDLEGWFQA
Briefly: in vitro fucosyltransferase assay, competition with GDP-Fuc transfer. The format is biochemical.

On to `Nc1nc2c(ncn2[C@@H]2O[C@H](COP(=O)(O)OP(=O)(O)O[C@H]3O[C@@H](CF)[C@@H](O)[C@@H](O)[C@@H]3O)[C@@H](O)[C@H]2O)c(=O)[nH]1` [compound 6, GDP-6F-Fuc], for which the pIC50 was ~5.60.

By pIC50 is commonly meant −log10 of the IC50, conventionally taken in molar units.
